Results taken from patent US20170122958A1, “Enzymes Functional Probes” (University of Dundee, priority 2013, published 2017).

Assays:
[1] = biological target: Brd2(1) Leu110-Ile (Homo sapiens, UniProt P25440, L110I); test: ITC reverse titration of protein into compound; assay type: binding; set-up: Plasmids of the eight single BET bromodomain constructs Brd2(1), Brd2(2), Brd3(1), Brd3(2), Brd4(1), Brd4(2), Brdt(1) and Brdt(2); His6 (N); made in house; host or cells: E. coli BL21(DE3)
Procedure: ITC experiments were carried out on a ITC200 instrument from MicroCal™ Experiments were conducted at 3 different temperatures 15° C., 25° C. and 30° C., while stirring at 1000 rpm. Buffers of proteins, peptide and compounds were matched to 20 mM HEPES pH 7.5 at 25° C. and 100 mM NaCl. Frozen protein was buffer exchanged as described for the DSF experiments. Each titration comprised 1 initial injection of 0.4 μl lasting 0.8 s, followed by 19 injections of 2 μl lasting 4 s each at 2 min intervals. The initial injection was discarded during data analysis. Standard and reverse titrations were conducted depending on the binding partners.
Reverse titrations were conducted to test the binding of the known ligands and the novel chemical probes to the wild types and the mutants. Experiments were carried out either at 25° C. or 30° C. For strong binders, a concentration of 150-200 μM of the protein was injected into a solution of 15-20 μM compound. […] In cases where the compound was solubilized in dimethyl sulfoxide, DMSO concentration was adjusted to 1% both in the syringe and in the cell.
All the data was fitted to a single binding site model using the Microcal LLC ITC200 Origin software provided by the manufacturer to yield enthalpies of binding (ΔH) and binding constants (Kas). Further thermodynamic parameters were calculated from these values (changes in entropy ΔS, changes in free energy AG and dissociation constants (Kds)).

[2] = biological target: T1, double Leu(94,387)/Ala mutant of GFP-Brd4 (Homo sapiens, UniProt O60885, L387A/L94A); test: FRAP in transfected U2OS cells; assay type: cell-based; conditions: double Leu(94,387)/Ala mutant GFP-Brd4, 1 μM compound
T1 construct: U2OS cells transfected with full-length human GFP-brd4; expressed in transfected cells; host or cells: U2OS human osteosarcoma cells
Procedure: To establish whether selectivity could also be observed within cells, we developed fluorescence recovery after photobleaching (FRAP) assays using full length human GFP-BRD4 transfected into human osteosarcoma cells (U2OS). […] The data shown represent the mean±SEM (n=35-50). Statistical significance was determined by one-tailed t tests: *<0.05; **P<0.01; ***P<0.001; n.s. not significant.
Fluorescence recovery after photobleaching (FRAP) experiments were performed in human osteosarcoma U2OS cells transfected with mammalian expression constructs encoding wild type and mutant GFP chimeras of Brd4. Cells were cultured in DMEM (Gibco) supplemented with fetal bovine serum, Penicillin/Streptamycin and L-Glutamine. Cells were seeded into glass bottom dishes (Willco) to about 40% confluency and transfected with the constructs using Effectene (QIAGEN) at least 18 h before the experiment. […] FRAP studies were performed using a DeltaVision Core mounted on an Olympus IX70 stand with a 60×1.4NA plan apo objective lens equipped with a heated chamber set to 37° C. and a Quantifiable Laser Module (QLM) with 10 mW 488 nm solid state laser delivering a diffraction limited spot to the centre field of view. […] FRAP data was analysed using the SoftWorX software. It was fitted to a 2-dimensional recovery curve using the method of Axelrod as implemented within the software and half-times of recovery were calculated.

Chain of Brd2(1) Leu110-Ile (P25440 74-180 L110I limits assumed): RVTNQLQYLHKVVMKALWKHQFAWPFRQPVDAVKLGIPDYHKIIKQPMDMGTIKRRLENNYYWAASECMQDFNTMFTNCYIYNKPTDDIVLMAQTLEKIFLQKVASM

| Structure (SMILES) | Kd [1] [µM] | Fluorescence recovery after photobleaching (recovery time) [2] |
| --- | --- | --- |
| COC(=O)[C@H](C)[C@@H]1N=C(c2ccc(Cl)cc2)c2cc(OC)ccc2-n2c(C)nnc21 (racemic) [Compound 7, (+−)-methyl (R)-2-((S)-6-(4-chlorophenyl)-8-methoxy-1-methyl-4H-benzo[f][1,2,4]triazolo[4,3-a][1,4]diazepin-4-yl)propanoate] | 0.26 |  |
| CC[C@@H](C(=O)OC)[C@@H]1N=C(c2ccc(Cl)cc2)c2cc(OC)ccc2-n2c(C)nnc21 (racemic) [Compound 11, (+−)-methyl (R)-2-((S)-6-(4-chlorophenyl)-8-methoxy-1-methyl-4H-benzo[f][1,2,4]triazolo[4,3-a][1,4]diazepin-4-yl)butanoate] |  | recovery times comparable to the iBET control |
